What all share (assay): DTP human tumour cell line panel, 48 h
The subject of test [1] is A549 NSCLC.
Test [2] concerns COLO 205 colon.
For test [3], the system named is DMS 114 small cell lung.
The test system of test [4] is HOP-18 NSCLC.
Test [5] relates to HOP-62 NSCLC.
For test [6], the system named is K-562 leukemia.
Test [7] has as its system M19-MEL melanoma.
Test [8] relates to MOLT-4 leukemia.
In test [9] the test system is NCI-H226 lung.
The test system of test [10] is NCI-H460 lung.
Test [11] deals with NCI/ADR-RES ovarian.
In test [12] the test system is OVCAR-3 ovarian.
The test system of test [13] is OVCAR-4 ovarian.
The test system of test [14] is OVCAR-5 ovarian.
For test [15], the system named is RXF 393 renal.
Test [16] has as its system SK-OV-3 ovarian.
Test [17] deals with SN12C renal.
For test [18], the system named is UACC-62 melanoma.

One compound from PubChem BioAssay (NCI) can be followed below.

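How tested: cells in 96-well plates exposed to compound for 48 hours at five concentrations. GI50 = concentration required for 50% inhibition of growth. TGI denotes the concentration required for complete inhibition of growth.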 Some results are limits rather than exact numbers.

The TGI is the concentration giving total growth inhibition. The low end stands for greater sensitivity of the cells, the high end for lower sensitivity of the cells. In general, GI50 refers to the concentration at which growth is held to half of that of the control. With `[Cl-].[Rh+3].c1ccc(-c2ccnc3c2ccc2c(-c4ccccc4)ccnc23)cc1.c1ccc(-c2ccnc3c2ccc2c(-c4ccccc4)ccnc23)cc1.c1ccc(-c2ccnc3c2ccc2c(-c4ccccc4)ccnc23)cc1`, the TGI in [1] was above 100 µM; in [2] it was 43.3 µM; in [3], 75 µM; in [4], above 87.4 µM; in test [5], above 100 µM; in test [6], above 78.4 µM. For the same compound, the TGI in [7] is above 86.2 µM; in test [8], above 100 µM; in test [9], above 100 µM; in test [10], above 100 µM; in [11], above 100 µM; in [12] it was above 100 µM. Also, the TGI in [13], in test [14], in test [15], in test [16], in test [17] and in test [18] was above 100 µM each time. The GI50 in test [11] is 73.2 µM.
